Measured values: patent US20060229250A1, “Ghrelin associated peptide and its uses” (priority 2005, published 2006)
Ends that are not written are not given here. * marks the point of attachment. Octanoyl = CCCCCCCC(=O)*

What was measured:
[1] = test system: plasma membrane preparations of rat jejunum; assay: I125-obestatin radioligand binding to jejunal membranes; details: for competition for labeled obestatin binding: displacement of iodinated wild type obestatin, rat jejunal membranes
Method: Iodination of obestatin was performed using the lodogen (Pierce, Upland, Ind.) procedure. Mixtures of the peptide (20 μg) and 1 mCi [125I] Nal were transferred to precoated lodogen vials and incubated for 4 min. The 125I-labeled peptide was applied to a Sep-Pak C18 cartridge (Waters) before elution with 60% acetonitrile/0.1% TFA. For radioligand binding assays, rat jejunum or other tissues were washed with buffer A (20 mM Hepes, 5 mM EDTA, 1 mM dithiothreitol (DTT), 10 μM amidinophenylmethanesulfonyl fluoride, 5 mg/L leupeptin, 100 mM KCl, pH 7.5), cut into small pieces, and homogenized using a motorized homogenizer. The homogenates were centrifuged at 1,000 g for 5 min. and the supernatant was centrifuged at 300,000 g for 1 hour at 2° C. The pellets (crude membrane fractions) were resuspended with buffer A without KCl, quickly frozen under liquid nitrogen, and stored at −80° C. until use.
After incubation, the tubes were centrifuged for 10 min. at 10,000 g, and pellets were washed twice in ice-cold PBS before quantitation of radioactivity with a γ-spectrophotometer. Specific binding was calculated by subtracting nonspecific binding from total binding.

[2] = Food intake in mice after peptide injection; type: in vivo
Method: (§1) Analysis of gastrointestinal functions. Eight-week-old C57BL6 male mice were housed individually in a regulated environment. Before intraperitoneal treatment with different peptides, mice were deprived of food for 16 hours with free access to water. Food intake was measured by placing preweighed pellets in the cage and weighing uneaten pellets at 5 hours after treatment. For intracerebroventricular injection of different peptides, mice were deprived of food for 16 hours. Free-hand injections were performed at 2 hours after light onset and food intake monitored for 5 hours. To estimate gastric emptying responses, mice deprived of food for 16 hours were given food pellets for 90 min. before injection of different hormones or saline. After treatment, mice were deprived of food again and sacrificed 0.5, 1, and 2 hours later. The stomach was excised at the pylorus and cardia before weighing. Gastric emptying was calculated by subtracting the stomach weight of treated mice from those sacrificed at the time of peptide injection.

[3] = Body weight in adult male rats under long-term peptide treatment; type: in vivo; details: 1 μmol per kg body weight, three times daily
Text: The observed inhibition of jejunal contraction may trigger an afferent vagus signal to induce a central satiety response.

[4] = Gastric emptying in mice; type: in vivo; details: 1 μmol per kg body weight, 0.5, 1 and 2 hours after treatment
Method: as §1

[5] = test system: jejunum muscle strips; assay: Isometric force measurement of jejunal muscle strips; details: in vitro; for contractile activity of jejunum muscle strips: isometric force, percent of maximal acetylcholine contraction
Method: Isometric force measurements. Strips of jejunal muscle (˜1 cm in length) were cut along the longitudinal axis of the circular muscle layer and the mucosa was removed to minimize contamination with endogenous peptides. Muscle strips were mounted to a TIS8105R (Kent Scientific Corporation, Torrington, Conn.) isometric strain gauge and immersed in a 5 ml organ bath maintained at 37° C. with oxygenated KRB [Krebs-Ringer phosphate buffer, consisting of 50 mM HEPES, 100 mM NaCl, 5 mM KCl, and 1 mM each of MgCl2, NaH2PO4, and CaCl2] as previously described. A resting force of 1.0 g was applied to intestinal muscles and a 1.5 hours equilibration period was allowed before testing of different peptides during a 5 min. period. After each test, muscle strips were washed with fresh KRB for 20 min. to allow full recovery of basal contractile activities. Maximal contraction was evaluated at the beginning and end of each experiment after treatment with 10 μM of acetylcholine chloride. Contractility data were digitized and stored in a computer using DAS Wizard™ (Measurement Computing, Middleboro, Mass.). The magnitude of contractile strength is expressed as percent of maximal contraction induced by acetylcholine.

[6] = test system: cultured rat pituitary cells; assay: Growth hormone secretion by cultured anterior pituitary cells; type: cell-based; details: 1 hour incubation
Method: Pituitary cell cultures. Anterior pituitaries were removed from adult male Sprague-Dawley rats and dispersed with 0.3% collagenase, 0.1% hyaluronidase and DNase I (10 μg/ml). The cell suspension was centrifuged at 300 g for 5 min. and cells were washed twice before incubation in Dulbecco minimal essential medium (DMEM) containing 0.1% bovine serum albumin (BSA), penicillin (100 units/ml), streptomycin (100 μg/ml), fungizone (2.5 μg/ml), and 10% fetal calf serum. Cells were seeded onto poly-lysine-coated 24-well plates at a density of ˜3×10^5 cells/well. Cultures were kept in a humidified atmosphere of 5% CO2 and 95% air at 37° C. […] Media was removed for growth hormone measurement by an enzyme-linked immunosorbent assay.

[7] = intracerebroventricular treatment, 8 nmol per kg body weight, mice, monitored for 5 hours
[8] = intraperitoneal injection, adult male mice deprived of food for 16 hours, cumulative intake up to 5 hours

Substance	competition for labeled obestatin binding [1]	food intake [2, 7]	food intake [2, 8]	body weight [3]	contractile activity of jejunum muscle strips [5]	growth hormone secretion [6]	further results
FNAPFDVGIKLSGVLYQQHSQAL-NH2 [L15-obestatin]	potency similar to the wild type obestatin	–	–	–	–	–	–
FNAPFDVGIKLSGVQYQQHSQAL-NH2 [obestatin]	–	decreased food intake	suppressed food intake in a time- and dose-dependent manner	suppressed body-weight gain	decreased the contractile activity	did not increase GH secretion	gastric emptying activity [4]: sustained suppression of gastric emptying activity; effect on ghrelin-stimulated contractile activity of jejunum muscle strips ([5]; together with ghrelin): antagonized the stimulatory effect of ghrelin
FNAPFDVGIKLSGVQYQQHSQALG (human) [NA-obestatin]	–	–	less effective	–	–	–	–
I125-obestatin: obestatin iodinated with [125I] NaI by the Iodogen procedure	–	–	–	–	–	–	specific binding of I125-obestatin ([1]; saturation binding, crude plasma membrane fractions of rat jejunum): High affinity binding
MTII [reference compound]	–	anorexigenic effect	–	–	–	–	–
ghrelin: peptide of 28 amino acids, serine-3 n-octanoylated; endogenous GHSR ligand; purchased from Phoenix Pharmaceuticals (GSS(Octanoyl)FLSPEHQRVQQRKESKKPPAKLQPR; UniProt Q9UBU3 24-51, looked up) [reference compound]	does not compete	–	–	increased body weight	stimulatory effect	stimulated growth hormone secretion	–
